Like-named read-outs stand apart in the source and are kept apart here.

By CC50 is commonly meant the concentration that lowers cell viability or growth by half. Read a low CC50 as harm at low concentration. A word on the EC50: it is the concentration needed to bring the measured effect to its halfway point.

Series [1] deals with T1, Recombinant rhinovirus 3C protease, serotype 14 (Human rhinovirus 14, UniProt P03303).
T1 construct: Recombinant rhinovirus 3C proteases; made in house
The series can be described thus: Inhibition of rhinovirus 3C protease (FRET assay, kobs/[I]), serotype 14. Type of series: biochemical. To be noted: pH 7.6; HRV-14; read-out: kobs/[I] (3C protease inhibition activity). The procedure:
Inhibition of Rhinovirus 3C Protease:
Stock solutions (50 mM, in DMSO) of various compounds were prepared; dilutions were in the same solvent. Recombinant rhinovirus 3C proteases (see Birch et al., “Purification of recombinant human rhinovirus 14 3C protease expressed in Escherichia coli,” Protein Expr. Pur. (1995), vol. 6(5), 609-618) from serotypes 14, 16, and 2 were prepared by the following standard chromatographic procedures: (1) ion exchange using Q Sepharose Fast Flow from Pharmacia; (2) affinity chromatography using Affi-Gel Blue from Biorad; and (3) sizing using Sephadex G-100 from Pharmacia. Each assay sample contained 2% DMSO, 50 mM tris pH 7.6, 1 mM EDTA, a test compound at the indicated concentration, approximately 1 μM substrate, and 50-100 nM protease. The kobs/I values were obtained from reactions initiated by addition of enzyme rather than substrate. RVP activity was measured in the fluorescence resonance energy transfer assay. The substrate was (N-terminal) DABCYL-([…]-EDANS. In the uncleaved peptide, the EDANS fluorescence was quenched by the proximal DABCYL moiety. When the peptide was cleaved, the quenching was relieved, and activity was measured as an increase in fluorescence signal. The tabulated data in the column designated kobs/[I] were measured from progress curves in enzyme start experiments.

For series [2], the system named is H1-HeLa cells. The series can be described thus: Cytotoxicity (CC50) in mock-infected H1-HeLa cells, XTT dye reduction. Type of series: cell-based, human. The procedure: (§1) In this cell protection assay, the ability of compounds to protect cells against HRV infection was measured by the XTT dye reduction method, which is described in Weislow et al., J. Natl. Cancer Inst. […] H1-HeLa cells were infected with HRV-14 at a multiplicity of infection (m.o.i.) of 0.13 (virus particles/cell) or mock-infected with medium only. Infected or mock-infected cells were resuspended at 8×10^5 cells per mL, and incubated with appropriate concentrations of the compounds to be tested. Two days later, XTT/PMS was added to test plates and the amount of formazan produced was quantified spectrophotometrically at 450/650 nm. […] The therapeutic index (TI) was calculated by dividing the CC50 value by the EC50 value.
(§2) All strains of human rhinovirus (HRV) for use in this assay were purchased from American Type Culture Collection (ATCC), except for HRV serotype-14 (produced from the infectious cDNA clone constructed by Dr. Robert Rueckert, Institute for Molecular Virology, University of Wisconsin, Madison, Wis.). HRV stocks were propagated and viral assays were performed in H1-HeLa cells (ATCC). Cells were grown in minimal essential medium with 10% fetal bovine serum, available from Life Technologies (Gaithersburg, Md.).
(§3) Coxsackievirus types A-21 (CAV-21) and B3 (CVB3) were purchased from American Type Culture Collection (ATCC, Rockville, Md.). Virus stocks were propagated and antiviral assays were performed in H1-HeLa cells (ATCC). Cells were grown in minimal essential medium with 10% fetal bovine serum (Life Technologies, Gaithersburg, Md.). The ability of the compounds of this invention to protect cells against either CAV-21 or CVB3 infection was measured by the XTT dye reduction method. This method is described in Weislow et al., J. Natl. Cancer Inst. […] H1-HeLa cells were infected with CAV-21 or CVB3 at a multiplicity of infection (m.o.i.) of 0.025 or 0.075, respectively, or mock-infected with medium only. H1-HeLa cells were plated at 4×10^4 cells per well in a 96-well plate and incubated with appropriate concentrations of the test compound. One day (CVB3) or two days (CAV-21) later, XTT/PMS was added to test plates and the amount of formazan produced was quantified spectrophotometrically at 450/650 nm. […] The therapeutic index (TI) was calculated by dividing the CC50 by the EC50.
In general terms: Tetrazolium dyes change colour on reduction, which living cells bring about.

Test in series [3]: as above
The class given is cell-based, human. The note with it: human, H1-HeLa cells, mock-infected; line of HRV-14. The procedure:
as §1, §2, §3

Series [4] deals with strains of human rhinovirus (HRV). Kind of series: Antirhinoviral H1-HeLa cell culture assay (XTT cell protection, EC50), other HRV strains. The class given is cell-based, human rhinovirus in H1-HeLa cells. To be noted: read-out: EC50. The procedure:
(§4) Antirhinoviral H1-HeLa Cell Culture Assay:
In this cell protection assay, the ability of compounds to protect cells against HRV infection was measured by the XTT dye reduction method, which is described in Weislow et al., J. Natl. Cancer Inst. (1989), vol. 81, 577-586. H1-HeLa cells were infected with HRV-14 at a multiplicity of infection (m.o.i.) of 0.13 (virus particles/cell) or mock-infected with medium only. Infected or mock-infected cells were resuspended at 8×10^5 cells per mL, and incubated with appropriate concentrations of the compounds to be tested. Two days later, XTT/PMS was added to test plates and the amount of formazan produced was quantified spectrophotometrically at 450/650 nm. […] The therapeutic index (TI) was calculated by dividing the CC50 value by the EC50 value.
as §2

For series [5], the system named is HRV-14. The series can be described thus: Antirhinoviral H1-HeLa cell culture assay (XTT cell protection, EC50), HRV-14. The class given is cell-based, human rhinovirus (HRV) serotype-14 in H1-HeLa cells. The note with it: Rhinovirus B, HRV14, H1-HeLa. The procedure:
as §4, §1, §2

T1 sequence (P03303 1538-1719): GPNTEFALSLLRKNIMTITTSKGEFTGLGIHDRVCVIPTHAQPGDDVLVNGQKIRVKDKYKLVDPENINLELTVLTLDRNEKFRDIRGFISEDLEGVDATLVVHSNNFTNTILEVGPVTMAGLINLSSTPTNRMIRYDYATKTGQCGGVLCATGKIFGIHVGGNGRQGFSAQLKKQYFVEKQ

For the compound `CCOC(=O)/C=C/[C@H](CCC(N)=O)NC(=O)[C@H](Cc1ccccc1)n1cccc(NC(=O)C2SCCS2)c1=O` [Compound 10, trans-(2′S,4S)-6-Carbamoyl-4-(2′-{3″-[([1′″,3′″]dithiolane-2′″-carbonyl)amino]-2″-oxo-2″H-pyridin-1″-yl}-3′-phenylpropionylamino)hex-2-enoic Acid Ethyl Ester], the kinact/KI in series [1] is 113000 M⁻¹ s⁻¹. In addition, the CC50 in series [2] (line of HRV-1A) and in series [2] (line of HRV-10) was over 10 µM in each case. The CC50 at 2 days in series [3] was over 10 µM. Further, the EC50 in series [4] (H1-HeLa, HRV-1A) came out at 1.18 µM; in series [4] (Human rhinovirus sp., HRV10, H1-HeLa, HRV-10) it was 1.41 µM; in series [5] (HRV-14, read-out: EC50), 0.104 µM.
For the compound `CCOC(=O)/C=C/[C@H](C[C@@H]1CCNC1=O)NC(=O)[C@H](Cc1ccccc1)n1cccc(NC(=O)OCc2ccccc2)c1=O` [Compound 19, trans-(2′S,3′″S,4S)-4-[2′-(3″-Benzyloxy-carbonylamino-2″-oxo-2″H-pyridin-1″-yl)-3′-phenylpropionylamino]-5-(2′″-oxopyrrolidin-3′″-yl)pent-2-enoic Acid Ethyl Ester], the kinact/KI in series [1] came out at 380000 M⁻¹ s⁻¹. This compound registered a CC50 at 2 days in series [3] of over 10 µM. The same compound yielded an EC50 in series [5] of 0.003 µM.
Turning to `Cc1cc(C(=O)Nc2cccn([C@@H](Cc3ccc(F)cc3)C(=O)N[C@H](/C=C3\CCOC3=O)C[C@@H]3CCNC3=O)c2=O)no1` [Compound 20, trans-(2″S,2″″S,3″″″S)-5-Methylisoxazole-3-carboxylic Acid (1′-{2″-(4′″-fluorophenyl)-1″-[2″″-(2′″″-oxodihydrofuran-3′″″-ylidene)-1″″-(2″″″oxopyrrolidin-3″″″-ylmethyl)ethylcarbamoyl]ethyl}-2′-oxo-1′,2′-dihydropyridin-3′-yl)amide], the kinact/KI in series [1] was 600000 M⁻¹ s⁻¹. In series [3], the CC50 at 2 days was over 10 µM. For the same compound, the EC50 in series [5] (HRV-14, read-out: EC50) is 0.015 µM.
Regarding `CCOC(=O)/C=C/[C@H](C[C@H]1CCNC1=O)NC(=O)[C@H](Cc1ccccc1)n1cccc(NC(=O)OCc2ccccc2)c1=O` [Compound 21, trans-(2′S,3′″R,4S)-4-[2′-(3″-Benzyloxycarbonylamino-2″-oxo-2″H-pyridin-1″-yl)-3′-phenylpropionylamino]-5-(2′″-oxopyrrolidin-3′″-yl)pent-2-enoic Acid Ethyl Ester], the kinact/KI in series [1] was found to be 6340 M⁻¹ s⁻¹. Besides, the CC50 at 2 days in series [3] is over 10 µM. Moreover, the EC50 in series [5] was 0.469 µM.
For the compound `CCOC(=O)/C=C/[C@H](C[C@@H]1CCNC1=O)NC(=O)Cn1cccc(NC(=O)c2cc(C)on2)c1=O` [Compound 22, trans-(4S,3″″S)-4-(2′-{3″-[(5′″-Methylisoxazole-3′″-carbonyl)amino]-2″-oxo-2″H-pyridin-1″-yl}acetylamino)-5-(2″″-oxopyrrilidin-3″″-yl)pent-2-enoic Acid Ethyl Ester], the kinact/KI in series [1] is 18500 M⁻¹ s⁻¹. For the same compound, in series [3], the CC50 at 2 days was over 10 µM. For the same compound, in series [5], the response was half-maximal at 1 µM (EC50).
In the case of `O=C1OCC/C1=C\[C@H](C[C@@H]1CCNC1=O)NC(=O)[C@H](Cc1ccc(F)cc1)n1cccc(NC(=O)c2cc(Cl)on2)c1=O` [Compound 23, trans-(2″S,2″S,3″″″S)-5-Chloroisoxazole-3-carboxylic Acid (1′-{2″-(4′″-fluorophenyl)-1″-[2″″-(2′″″-oxodihydrofuran-3′″″-ylidene)-1″″-(2″″″-oxopyrrolidin-3″″″-ylmethyl)ethylcarbamoyl]ethyl}-2′-oxo-1′,2′′-dihydropyridin-3′-yl)amide], the kinact/KI in series [1] was 385000 M⁻¹ s⁻¹. For the same compound, in series [3], the CC50 at 2 days is over 10 µM. Also, the EC50 in series [5] (HRV-14, read-out: EC50) worked out at 0.064 µM.
With `CCOC(=O)/C=C/[C@H](CCC(N)=O)NC(=O)[C@H](Cc1ccccc1)n1cccc(NC(=O)c2cc(Cl)on2)c1=O` [Compound 30, trans-(2′S,4S)-6-Carbamoyl-4-(2′-{3″-[(5′″-chloroisoxazole-3′″-carbonyl)amino]-2″-oxo-2″H-pyridin-1″-yl}-3′-phenylpropionylamino)hex-2-enoic Acid Ethyl Ester], the kinact/KI in series [1] was found to be 134000 M⁻¹ s⁻¹. In series [3], this compound showed a CC50 at 2 days of over 10 µM. The EC50 in series [5] (HRV-14, read-out: EC50) stood at 0.024 µM.
As for `CC[C@@H](C(=O)N[C@H](/C=C/C(=O)O)C[C@@H]1CCNC1=O)n1cccc(NC(=O)c2cc(C)on2)c1=O` [Compound 35, trans-(2S,3″″S,4S)-4-(2′-{3″-[(5′″-Methylisoxazole-3′″-carbonyl)amino]-2″-oxo-2″H-pyridin-1″-yl}butyrylamino)-5-(2″″-oxopyrrolidin-3″″-yl)pent-2-enoic Acid], the kinact/KI in series [1] came out at 220 M⁻¹ s⁻¹. In series [3], the CC50 at 2 days was over 10 µM. The EC50 in series [5] is over 10 µM.
With `CCOC(=O)/C=C/[C@H](CCC(N)=O)NC(=O)[C@@H]1CCc2ccc(NC(=O)OCc3ccccc3)c(=O)n21` [Compound 36, trans-(3′S,4S)-4-[(6′-Benzyloxycarbonylamino-5′-oxo-1′,2′,3′,5′-tetrahydroindolizine-3′-carbonyl)amino]-6-carbamoylhex-2-enoic Acid Ethyl Ester], the kinact/KI in series [1] was 4540 M⁻¹ s⁻¹. The compound also came in with a CC50 at 2 days in series [3] of over 100 µM. In addition, in series [5] (HRV-14, read-out: EC50), the EC50 stood at 9 µM.
Consider `C#CC[C@@H](C(=O)N[C@H](/C=C/C(=O)O)C[C@@H]1CCNC1=O)n1cccc(NC(=O)c2cc(C)on2)c1=O` [Compound 43, trans-(2′S,3′″″S,4S)-4-[2′-(3″-{[1′″-(5″″-Methylisoxazol-3″″-yl)methanoyl]amino}-2′″-oxo-2′″H-pyridin-1′″-yl)pent-4″-ynoylamino]-5-(2′″″-oxopyrrolidin-3′″″-yl)pent-2-enoic Acid], for which the kinact/KI in series [1] came out at 382 M⁻¹ s⁻¹. Besides, the CC50 at 2 days in series [3] is over 10 µM. Moreover, the EC50 in series [5] was over 10 µM.
